Experimental data reported in US20100248965A1, “HERBICIDAL COMBINATION” (Bayer CropScience AG, priority 2007, published 2010).
Values joined by “and” are separate entries in the source; they are usually repeats but may differ in a detail not shown here. Equal values may be shown once.

Legend:
Format in all cases: in vivo
Polygonum convolvulus = assay: Post-emergence action against weeds (greenhouse, visual scoring): Polygonum convolvulus; conditions: scored 11 days after application
Protocol: (§1) Seeds or rhizome pieces of monocotyledonous and dicotyledonous weeds were placed in sandy loam soil in plastic pots, covered with soil and cultivated in a greenhouse under good growth conditions. Three weeks after sowing, the test plants were treated at the 2- to 4-leaf stage. The compounds according to the invention, formulated as wettable powders or as emulsion concentrates, were sprayed onto the green parts of the plants in various dosages at a water application rate of 100 to 800 l/ha (converted).
(§2) Scoring was carried out 11 days after the application of the sprays. In the case of the combination with B7-16 (table 1-15), the weed was Polygonum spp. and scoring was carried out 20 days after application.
(§3) The control of the weed was scored according to the scheme below.

Veronica persica = assay: Post-emergence action against weeds (greenhouse, visual scoring): Veronica persica; conditions: scored 10 days after application
Protocol: as §1, with “(converted). After the test plants had been left to stand in the greenhouse for 10 to 28 days under optimum growth conditions, the effect of the preparations was scored visually in comparison to untreated controls.” for “(converted).”
In an exemplary manner, tables 2-1 to 2-4 below show the improved control of the weed Veronica persica by application of the herbicide combinations according to the invention using the combination of the compound A-2 (sodium salt of 2-iodo-N-[(4-methoxy-6-methyl-1,3,5-triazin-2-yl)carbamoyl]benzenesulfonamide) and selected herbicides from group B, i.e. the herbicides amidosulfuron (=B7-1), ethoxysulfuron (=B7-9), flucarbazone-sodium (B8-1), and sulfosulfuran (B7-28), as an example.
Scoring was carried out 10 days after the application of the sprays according to the scheme below: […]

Polygonum spp. = assay: Post-emergence action against weeds (greenhouse, visual scoring): Polygonum spp.; conditions: scored 20 days after application
Protocol: as §1, §2, §3

[1] = 2.5 g of ai/ha, 0%=no control, 100%=complete control

## CCOC(=O)Nc1cccc(OC(=O)Nc2ccccc2)c1 [Compound B5-5, desmedipham]
Polygonum convolvulus; 50 g of ai/ha
  Polygonum convolvulus Control in %: 28%

## COc1cc(OC)nc(NC(=O)NS(=O)(=O)N(C)S(C)(=O)=O)n1 [Compound B7-1, amidosulfuron]
Veronica persica; 5 g of ai/ha
  Veronica persica Control in %: 0%

## CCOc1ccccc1OS(=O)(=O)NC(=O)Nc1nc(OC)cc(OC)n1 [Compound B7-9, ethoxysulfuron]
Veronica persica; 5 g of ai/ha
  Veronica persica Control in %: 8%

## COc1cc(OC)nc(NC(=O)NS(=O)(=O)c2cc(NC=O)ccc2C(=O)N(C)C)n1 [Compound B7-13, foramsulfuron]
Polygonum convolvulus; 10 g of ai/ha
  Polygonum convolvulus Control in %: 15%

## COC(=O)c1ccc(I)cc1S(=O)(=O)[N-]C(=O)Nc1nc(C)nc(OC)n1.[Na+] [Compound B7-16, iodosulfuron-methyl-sodium]
Polygonum spp.; 2 g of ai/ha
  Polygonum spp. Control in %: 73%

## COC(=O)c1ccc(CNS(C)(=O)=O)cc1S(=O)(=O)NC(=O)Nc1nc(OC)cc(OC)n1 [Compound B7-17, mesosulfuron-methyl]
Polygonum convolvulus; 5 g of ai/ha
  Polygonum convolvulus Control in %: 20%

## COC(=O)c1ccccc1S(=O)(=O)NC(=O)Nc1nc(C)nc(OC)n1 [Compound B7-18, metsulfuron-methyl]
Polygonum convolvulus; [1]
  Polygonum convolvulus Control in %: 70%

## CCS(=O)(=O)c1nc2ccccn2c1S(=O)(=O)NC(=O)Nc1nc(OC)cc(OC)n1 [Compound B7-28, sulfosulfuron]
Polygonum convolvulus; 7.5 g of ai/ha
  Polygonum convolvulus Control in %: 78%
Veronica persica; 7.5 g of ai/ha
  Veronica persica Control in %: 30%

## COC(=O)c1sccc1S(=O)(=O)NC(=O)Nc1nc(C)nc(OC)n1 [Compound B7-29, thifensulfuron-methyl]
Polygonum convolvulus; 7.5 g of ai/ha
  Polygonum convolvulus Control in %: 87%

## COC(=O)c1ccccc1S(=O)(=O)NC(=O)N(C)c1nc(C)nc(OC)n1 [Compound B7-31, tribenuron-methyl]
Polygonum convolvulus; 10 g of ai/ha
  Polygonum convolvulus Control in %: 80%

## COc1nc(NC(=O)NS(=O)(=O)c2ccccc2C(F)(F)F)nc(C(F)(F)F)n1 [Compound B7-34, tritosulfuron]
Polygonum convolvulus; 10 g of ai/ha
  Polygonum convolvulus Control in %: 58%

## CCCc1ccc2nc(Cl)c(S(=O)(=O)NC(=O)Nc3nc(OC)cc(OC)n3)n2n1 [Compound B7-38]
Polygonum convolvulus; 30 g of ai/ha
  Polygonum convolvulus Control in %: 0%

## COc1nn(C(=O)[N-]S(=O)(=O)c2ccccc2OC(F)(F)F)c(=O)n1C.[Na+] [Compound B8-1, flucarbazone-sodium]
Polygonum convolvulus; 10 g of ai/ha
  Polygonum convolvulus Control in %: 55%
Veronica persica; 10 g of ai/ha
  Veronica persica Control in %: 15%

## CCCOc1nn(C(=O)[N-]S(=O)(=O)c2ccccc2C(=O)OC)c(=O)n1C.[Na+] [Compound B8-2, propoxycarbazone-sodium]
Polygonum convolvulus; 10 g of ai/ha
  Polygonum convolvulus Control in %: 38%

## COC(=O)c1csc(C)c1S(=O)(=O)NC(=O)n1nc(OC)n(C)c1=O [Compound B8-3, thiencarbazone-methyl]
Polygonum convolvulus; 1 g of ai/ha
  Polygonum convolvulus Control in %: 50%

## COc1ncc(F)c2nc(S(=O)(=O)Nc3c(F)cccc3F)nn12 [Compound B9-3, florasulam]
Polygonum convolvulus; [1]
  Polygonum convolvulus Control in %: 73%

## COc1cc(OC)n2nc(NS(=O)(=O)c3c(C(F)(F)F)ccnc3OC)nc2n1 [Compound B9-7, pyroxsulam]
Polygonum convolvulus; [1]
  Polygonum convolvulus Control in %: 75%

## sodium salt of 2-iodo-N-[(4-methoxy-6-methyl-1,3,5-triazin-2-yl)carbamoyl]benzenesulfonamide [Compound A-2]
Polygonum spp.; 2.5 g of ai/ha
  Polygonum spp. Control in %: 0%
Polygonum convolvulus; [1]
  Polygonum convolvulus Control in %: 10% and 0%
Veronica persica; 2.5 g of ai/ha, 0%=No control, 100%=Complete control
  Veronica persica Control in %: 10% and 0%
